# Data: ChEMBL document CHEMBL1201862, “PubChem BioAssay data set” (2004)
# Activity calls are given as the source filed them.
# Tests used:
# [1] = test system: H9c2; test: cells; assay type: functional, cell-based; details: Rattus norvegicus, H9c2, Myocardium;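 note: confirmatory concentration-response retest of ultra-high-throughput screening hits for modulation of myocardial damage; cell death induced by hydrogen peroxide oxidative stress; compound pretreatment for 60 min then peroxide exposure for 2 h; potency is for protecting the cells against peroxide damage rather than for killing them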
# [2] = Luminescence Cell-Based Dose Retest to Confirm Inhibitors of Cancer Stem Cells. [Related pubchem assays (depositor defined):AID2717, AID2721]; assay type: functional; details: Homo sapiens
# [3] = biological target: Nonstructural protein 1 (Influenza A virus, UniProt Q194T2); assay type: functional, Influenza A virus (A/California/07/2009(H1N1))
# [4] = biological target: T1, Corticotropin-releasing factor receptor 2/Corticotropin-releasing factor-binding protein (Homo sapiens, UniProt P24387+Q13324); test: Dose Response confirmation of uHTS hits for small molecule antagonists of the CRF-binding protein and CRF-R2 receptor complex.; assay type: functional; details: read-out: IC50_Mean
# T1 sequence (Q13324 whole entry): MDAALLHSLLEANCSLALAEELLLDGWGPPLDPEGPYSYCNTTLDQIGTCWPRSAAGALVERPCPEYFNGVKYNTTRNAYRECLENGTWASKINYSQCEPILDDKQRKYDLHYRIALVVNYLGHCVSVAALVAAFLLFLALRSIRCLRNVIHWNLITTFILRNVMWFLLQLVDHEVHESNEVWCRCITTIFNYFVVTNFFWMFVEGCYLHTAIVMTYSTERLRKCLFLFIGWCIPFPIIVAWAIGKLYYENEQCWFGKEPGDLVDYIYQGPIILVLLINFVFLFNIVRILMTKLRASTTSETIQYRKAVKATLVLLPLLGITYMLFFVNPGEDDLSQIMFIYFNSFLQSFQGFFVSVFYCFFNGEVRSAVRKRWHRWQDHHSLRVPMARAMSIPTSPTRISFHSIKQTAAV
# T1 sequence (P24387 whole entry): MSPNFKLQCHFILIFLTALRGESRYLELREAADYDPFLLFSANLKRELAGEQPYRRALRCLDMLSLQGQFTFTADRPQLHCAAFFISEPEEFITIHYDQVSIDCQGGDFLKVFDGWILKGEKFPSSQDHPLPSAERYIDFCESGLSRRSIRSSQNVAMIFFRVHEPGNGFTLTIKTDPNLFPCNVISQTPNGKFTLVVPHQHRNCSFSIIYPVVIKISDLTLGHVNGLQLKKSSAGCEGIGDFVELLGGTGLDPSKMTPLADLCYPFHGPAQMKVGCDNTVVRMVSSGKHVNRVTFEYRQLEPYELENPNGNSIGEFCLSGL
# [5] = biological target: T1, Corticotropin-releasing factor receptor 2/Corticotropin-releasing factor-binding protein; test: activators of CRF receptor 2 with binding protein – uHTS hits, confirmation (AID 602473); assay type: functional; details: read-out: EC50_Mean
# [6] = biological target: T2, Calpain-2 catalytic subunit (Sus scrofa, UniProt P43367); test: pig calpain II inhibitor potency, dose response, biochemical, fluorogenic peptide substrate (AID 1420); assay type: functional
# T2 sequence (P43367 whole entry): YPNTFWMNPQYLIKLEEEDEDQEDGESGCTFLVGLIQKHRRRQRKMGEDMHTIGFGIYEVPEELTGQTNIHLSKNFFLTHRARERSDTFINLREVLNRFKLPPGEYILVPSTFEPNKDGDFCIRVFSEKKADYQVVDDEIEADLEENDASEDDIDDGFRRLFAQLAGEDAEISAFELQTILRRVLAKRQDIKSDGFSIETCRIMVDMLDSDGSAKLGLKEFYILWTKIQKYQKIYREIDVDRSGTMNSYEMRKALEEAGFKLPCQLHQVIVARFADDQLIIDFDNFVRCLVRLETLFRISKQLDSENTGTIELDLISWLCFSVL
# [7] = inhibitors of firefly luciferase expression or activity, dose response, H4 neuroglioma cells, luminescence (AID 1990); assay type: functional, cell-based
# [8] = Luminescence Cell-Based Dose Response HTS to Identify Inhibitors of 5'UTR Stem-Loop Driven Prion Protein mRNA Translation in H4 Neuroglioblastoma Cells. [Related pubchem assays: 1827 (Project Summary), 1813 (Primary HTS)]; assay type: functional
# [9] = test system: Streptococcus sp. 'group A'; test: growth inhibition of control SK(-) GAS strain, dose response, counter-screen for streptokinase expression inhibitor project, luminescence, kanamycin, BacTiterGlo, confirmation (AID 1900); assay type: functional, organism-based
# [10] = test system: Streptococcus; test: Group A Streptococcus viability loss, dose response, counter-screen for streptokinase expression inhibitor project, luminescence, BacTiterGlo (AID 1915); assay type: functional, organism-based;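 note: potency for reduction of bacterial viability or growth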
# [11] = biological target: T3, Streptokinase A (Streptococcus pyogenes serotype M1, UniProt P10520); test: S. pyogenes streptokinase expression inhibitors, potency, dose response, plasminogen activation absorbance, OD405 (AID 1914); assay type: functional, Streptococcus pyogenes M1 GAS;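 note: secreted streptokinase activity via plasminogen activation per viability signal from cell pellet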
# T3 sequence (P10520 whole entry): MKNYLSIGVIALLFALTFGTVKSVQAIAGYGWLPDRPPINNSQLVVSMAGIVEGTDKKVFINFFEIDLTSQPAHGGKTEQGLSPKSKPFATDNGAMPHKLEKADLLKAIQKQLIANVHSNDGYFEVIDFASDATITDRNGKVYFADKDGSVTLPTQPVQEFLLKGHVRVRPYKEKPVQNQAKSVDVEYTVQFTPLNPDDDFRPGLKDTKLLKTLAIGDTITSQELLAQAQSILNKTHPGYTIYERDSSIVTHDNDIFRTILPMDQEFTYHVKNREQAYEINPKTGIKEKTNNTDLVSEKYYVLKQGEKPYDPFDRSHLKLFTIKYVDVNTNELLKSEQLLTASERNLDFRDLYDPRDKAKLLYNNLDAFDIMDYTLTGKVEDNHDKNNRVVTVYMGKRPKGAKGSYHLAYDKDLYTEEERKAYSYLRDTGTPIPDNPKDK
# [12] = test system: INS1; test: beta cell apoptosis inhibitors, cytokine rescue, dose response, luminescence, retest (AID 449756); assay type: functional, cell-based; details: Rattus norvegicus;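 note: cell death triggered by IL-1 beta plus TNF-alpha plus IFN-gamma mixture; protective hits raise ATP signal compared with cytokine alone wells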
# [13] = Shn3 3'UTR reporter inhibitors, dose response, cell-based, Clone20 osteoblasts, firefly luciferase, cherry-picked (AID 624132); assay type: functional;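 note: firefly luciferase luminescence from reporter carrying the Shn3 3'UTR in osteoblasts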
# [14] = HepG2 cell cytotoxicity, dose response, cytotoxicity control for Shn3 inhibitor project, CellTiter-Glo, cherry-picked (AID 624134); assay type: functional, cell-based
# [15] = control 3'UTR Renilla luciferase suppression, dose response, counter-screen for Shn3 inhibitor project, cell-based, Clone20-Shn3RL, cherry-picked (AID 624133); assay type: functional
# [16] = P. falciparum Dd2 growth inhibitors, dose response, SYBR Green, cherry-picked samples (AID 1159567); assay type: functional, cell-based
# Chain of Nonstructural protein 1 (Q194T2 whole entry): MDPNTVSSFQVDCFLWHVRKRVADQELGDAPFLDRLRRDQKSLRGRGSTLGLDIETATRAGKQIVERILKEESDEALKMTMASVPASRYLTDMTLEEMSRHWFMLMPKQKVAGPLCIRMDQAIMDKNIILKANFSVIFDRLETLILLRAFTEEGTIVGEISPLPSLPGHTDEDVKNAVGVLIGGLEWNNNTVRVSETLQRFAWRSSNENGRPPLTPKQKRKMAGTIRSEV
smiles,measurement,setting,value
COc1ccc(C(=O)COC(=O)C(CCCCN2C(=O)C3C4C=CC(C4)C3C2=O)N2C(=O)C3C4C=CC(C4)C3C2=O)cc1 (configuration not stated),IC50,[1],> 79 µM (inactive)
CN1C(=O)/C(=C/c2cc(N=Nc3ccccc3)ccc2O)SC1=S,AC50,[2],0.644 µM (active)
same,IC50,[3],14.5 µM (active)
COc1ccc(C)cc1S(=O)(=O)N1CCN(S(=O)(=O)c2cc(C)ccc2OC)CC1,IC50,[4],> 47.1 µM (inactive)
same,EC50,[5],> 53 µM (inactive)
COC(=O)C1=C(C)N(C)C(C)=C(C(=O)OC)C1c1ccc(F)c(Br)c1,IC50,[4],> 47.1 µM (inactive)
same,EC50,[5],> 53 µM (inactive)
CCCN(CCC)C(=O)CC(c1ccccc1)c1cc(Br)ccc1O (configuration not stated),IC50,[6],16 µM (not active)
O=C(CSc1ccc(-c2ccccn2)nn1)NCc1ccc(Cl)cc1,IC50,[3],41.9 µM (active)
CCn1cc(C(=O)N2CCN(c3ccc([N+](=O)[O-])cc3)CC2)c(=O)c2ccc(C)nc21,EC50,[7],21.6 µM (active)
same,EC50,[8],> 120 µM (not active)
CC(C)(C)c1ccc(OCCNC(=S)Nc2ccccc2)cc1,IC50,[6],8.08 µM (not active)
COc1ccc(N2CCN(C(=O)CCC(=O)N3CCOc4ccc(Cl)cc43)CC2)cc1,IC50,[3],> 100 µM (active)
COc1cccc(NC(S)=NN=C2CCCCCC2)c1,EC50,[9],17.5 µM (active)
same,IC50,[6],> 50 µM (not active)
same,EC50,[10],> 150 µM (not active)
same,EC50,[11],> 150 µM (not active)
Cc1ccccc1N=C(S)Nc1cccc2cnccc12,AC50,[12],> 260 µM (inactive)
Cc1ccc(C)c(-c2csc(NC(=O)C3=COCCO3)n2)c1,AC50,[12],7.19 µM (active)
CC(C)(C)N(Cc1ccccc1)C(=O)CCc1ccccc1,IC50,[6],32.5 µM (not active)
CC1CCCC(C)N1C(=O)COC(=O)COc1ccc(C#N)cc1 (configuration not stated),IC50,[4],> 47.1 µM (inactive)
same,EC50,[5],> 53 µM (inactive)
CC1C(=O)N(Cc2cn(CCC3OCCCO3)nn2)CCS(=O)(=O)N1Cc1ccc(-c2ccc(Cl)c(Cl)c2)cc1 (configuration not stated),AC50,[13],3.39 µM (active)
same,AC50,[14],> 70 µM (inactive)
same,AC50,[15],2.7 µM (active)
C[C@H](NC(=O)c1ncn2c1c(O)nc1ccc(Br)cc12)c1ccccc1,AC50,[13],8.76 µM (active)
same,AC50,[14],9.3 µM (active)
same,AC50,[15],16.2 µM (active)
C/C(=N\NC(N)=S)c1ccncc1,AC50,[12],> 260 µM (inactive)
C[C@@H]1CN([C@H](C)CO)C(=O)c2cccc(NC(=O)Nc3cccc4ccccc34)c2O[C@H]1CN(C)C(=O)NC1CCCCC1,AC50,[16],4.98 µM (active)
C[C@@H]1CN([C@@H](C)CO)C(=O)Cc2cc(NC(=O)NC3CCCCC3)ccc2O[C@H]1CN(C)C(=O)Nc1cccc2ccccc12,AC50,[16],5.11 µM (active)
CN(C)c1ccc2c(c1)[C@@H]1C[C@@H](CC(=O)NCc3cc(F)ccc3F)O[C@@H](CO)[C@@H]1O2,AC50,[16],13.3 µM (active)
